Structures can show the parent of a compound that is named as a salt.
System: recombinant guanylate cyclase reporter cell line
Experiment: Action on recombinant guanylate cyclase reporter cell line (MEC)
Assay type: cell-based
Details: in some cases mean values obtained from individual determinations
Procedure, shortened: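 Cell-based reporter assay with recombinant guanylate cyclase expressed in a reporter cell line, per a published method. Activity reported as minimal effective concentration (MEC), in some cases as the mean of individual determinations.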

| Structure (SMILES) | minimal effective concentration |
| --- | --- |
| Cc1nc2c(OCc3c(F)cccc3F)cccn2c1C(=O)NC(c1ccc(F)cc1)C(C)(C)O (racemic) [Example 152, rac-8-[(2,6-difluorobenzyl)oxy]-N-[1-(4-fluorophenyl)-2-hydroxy-2-methylpropyl]-2-methylimidazo[1,2-a]pyridine-3-carboxamide] | 0.3 µM |
| Cc1cc(OCCC(C(F)(F)F)C(F)(F)F)c2nc(C)c(C(=O)NC3CCCC3O)n2c1 (stereo not drawn) [Example 173, N-(2-hydroxycyclopentyl)-2,6-dimethyl-8-[4,4,4-trifluoro-3-(trifluoromethyl)butoxy]imidazo[1,2-a]pyridine-3-carboxamide] | 3 µM |
| Cc1nc2c(OCc3c(F)cccc3F)cccn2c1C(=O)NC(C)C(O)C(F)(F)F (single isomer, unassigned) [Example 144, 8-[(2,6-Difluorobenzyl)oxy]-2-methyl-N-(4,4,4-trifluoro-3-hydroxybutan-2-yl)imidazo[1,2-a]-pyridine-3-carboxamide] | 0.3 µM |
| Cc1nc2c(OCc3c(F)cccc3F)cccn2c1C(=O)NC(CO)CCC(F)(F)F (single isomer, unassigned; ent-8) [Example 122, ent-8-[(2,6-Difluorobenzyl)oxy]-2-methyl-N-(5,5,5-trifluoro-1-hydroxypentan-2-yl)imidazo[1,2-a]-pyridine-3-carboxamide] | 0.03 µM |
| Cc1nc2c(OCC3CCCCC3)cccn2c1C(=O)N[C@H](CO)CC(C)C [Example 95, 8-(cyclohexylmethoxy)-N-[(2S)-1-hydroxy-4-methylpentan-2-yl]-2-methylimidazo[1,2-a]pyridine-3-carboxamide] | 3 µM |
| Cc1nc2c(OCc3c(F)cccc3F)cccn2c1C(=O)NC(CC(F)(F)F)C(C)(C)O (racemic) [Example 148, rac-8-[(2,6-Difluorobenzyl)oxy]-2-methyl-N-(1,1,1-trifluoro-4-hydroxy-4-methylpentan-3-yl)-imidazo[1,2-a]pyridine-3-carboxamide] | 0.03 µM |
| Cc1nc2c(OCC3CCCCC3)cccn2c1C(=O)NC(CO)COC(C)(C)C (stereo not drawn) [Example 94, N-(1-tert-butoxy-3-hydroxypropan-2-yl)-8-(cyclohexylmethoxy)-2-methylimidazo[1,2-a]-pyridine-3-carboxamide] | 3 µM |
| Cc1nc2c(OCc3c(F)cccc3F)cccn2c1C(=O)NCCC1(O)CCCC1 [Example 117, 8-[(2,6-difluorobenzyl)oxy]-N-[2-(1-hydroxycyclopentyl)ethyl]-2-methylimidazo[1,2-a]pyridine-3-carboxamide] | 0.03 µM |
| Cc1nc2c(OCc3ccccc3F)cccn2c1C(=O)NC(CO)CO [Example 51, N-(1,3-dihydroxypropan-2-yl)-8-[(2-fluorobenzyl)oxy]-2-methylimidazo[1,2-a]pyridine-3-carboxamide] | 5.5 µM |
| CCCC[C@H](CO)NC(=O)c1c(C)nc2c(OCc3c(F)cc(F)cc3F)cccn12 [Example 15, N-[(2R)-1-Hydroxyhexan-2-yl]-2-methyl-8-[(2,4,6-trifluorobenzyl)oxy]imidazo[1,2-a]pyridine-3-carboxamide] | 0.1 µM |
| CCCC[C@H](CO)NC(=O)c1c(C)nc2c(OCc3ccccc3F)cccn12 [Example 5, 8-[(2-fluorobenzyl)-oxy]-N-[(2R)-1-hydroxyhexan-2-yl]-2-methylimidazo[1,2-a]pyridine-3-carboxamide] | 0.1 µM |
| CCCC[C@H](CO)NC(=O)c1c(C)nc2c(OCc3c(F)cccc3Cl)cccn12 [Example 3, 8-[(2-chloro-6-fluorobenzyl)oxy]-N-[(2R)-1-hydroxyhexan-2-yl]-2-methylimidazo[1,2-a]pyridine-3-carboxamide] | 0.1 µM |
| Cc1nc2c(OCC3CCCCC3)cccn2c1C(=O)NC[C@H](O)CO [Example 68, 8-(cyclohexylmethoxy)-N-[(2S)-2,3-dihydroxypropyl]-2-methylimidazo[1,2-a]pyridine-3-carboxamide] | 0.03 µM |
| C[C@@H](CO)NC(=O)c1cnc2c(OCC3CCCCC3)cccn12 [Example 59, 8-(cyclohexylmethoxy)-N-[(2S)-1-hydroxypropan-2-yl]imidazo[1,2-a]pyridine-3-carboxamide] | 3 µM |
| Cc1nc2c(OCC3CCCCC3)cccn2c1C(=O)N[C@@H]1CCCC[C@H]1O (racemic) [Example 78, (rac)-8-(cyclohexylmethoxy)-N-[(trans)-2-hydroxycyclohexyl]-2-methylimidazo[1,2-a]-pyridine-3-carboxamide] | 0.3 µM |
| Cc1nc2c(OCc3ccccc3)cccn2c1C(=O)N[C@@H](C)CO [Example 46, 8-(Benzyloxy)-N-[(2S)-1-hydroxypropan-2-yl]-2-methylimidazo[1,2-a]pyridine-3-carboxamide] | 3 µM |
| Cc1nc2c(OCc3c(F)cccc3F)cccn2c1C(=O)N[C@@H]1CCC[C@H]1O [Example 36, 8-[(2,6-difluorobenzyl)oxy]-N-[(1R,2R)-2-hydroxycyclopentyl]-2-methylimidazo[1,2-a]-pyridine-3-carboxamide] | 0.1 µM |

| Structure (SMILES) | minimal effective concentration |
| --- | --- |
| CCCC[C@H](CO)NC(=O)c1c(C)nc2c(OCc3cccc(C)c3F)cccn12 [Example 11, 8-[(2-fluoro-3-methylbenzyl)oxy]-N-[(2R)-1-hydroxyhexan-2-yl]-2-methylimidazo[1,2-a]pyridine-3-carboxamide] | 1.5 µM |
| Cc1nc2c(OCc3c(F)cccc3F)cccn2c1C(=O)NC(CO)C(F)(F)F (racemic) [Example 110, rac-8-[(2,6-Difluorobenzyl)oxy]-2-methyl-N-(1,1,1-trifluoro-3-hydroxypropan-2-yl)imidazo[1,2-a]pyridine-3-carboxamide] | 0.3 µM |
| Cc1nc2c(OCc3c(F)cccc3F)cccn2c1C(=O)NC(CO)CC(F)(F)F (racemic) [Example 113, rac-8-[(2,6-Difluorobenzyl)oxy]-2-methyl-N-(4,4,4-trifluoro-1-hydroxybutan-2-yl)imidazo[1,2-a]-pyridine-3-carboxamide] | 0.03 µM |
| CCCC[C@H](CO)NC(=O)c1c(C)nc2c(OCc3cccc4c3OC(F)(F)O4)cccn12 [Example 12, 8-[(2,2-difluoro-1,3-benzodioxol-4-yl)methoxy]-N-[(2R)-1-hydroxyhexan-2-yl]-2-methylimidazo[1,2-a]-pyridine-3-carboxamide] | 3 µM |
| Cc1nc2c(OCc3c(F)cccc3F)cc(Cl)cn2c1C(=O)N[C@@H](CO)CCCO [Example 127, 6-Chloro-8-[(2,6-difluorobenzyl)oxy]-N-[(2R)-1,5-dihydroxypentan-2-yl]-2-methylimidazo[1,2-a]-pyridine-3-carboxamide] | 0.3 µM |
| CCC[C@H](CO)NC(=O)c1c(C)nc2c(OCc3c(F)cccc3F)cccn12 [Example 18, 8-[(2,6-difluorobenzyl)oxy]-N-[(2R)-1-hydroxy-pentan-2-yl]-2-methylimidazo[1,2-a]pyridine-3-carboxamide] | 0.1 µM |
| [2H]C([2H])(Oc1cccn2c(C(=O)N[C@@H](CO)CCCC)c(C)nc12)c1c(F)cccc1F [Example 115, 8-{[(2,6-difluorophenyl)(^2H2)methyl]oxy}-N-[(2R)-1-hydroxyhexan-2-yl]-2-methylimidazo[1,2-a]pyridine-3-carboxamide] | 0.01 µM |
| Cc1nc2c(OCC3CCCCC3)cccn2c1C(=O)N[C@@H]1CCC[C@@H]1O (relative stereo) [Example 81, 8-(cyclohexylmethoxy)-N-[cis-2-hydroxycyclopentyl]-2-methylimidazo[1,2-a]-pyridine-3-carboxamide] | 0.65 µM |
| Cc1nc2c(OCc3c(F)cccc3F)cccn2c1C(=O)NC(CO)COCC(C)C (racemic) [Example 163, rac-8-[(2,6-Difluorobenzyl)oxy]-N-(1-hydroxy-3-isobutoxypropan-2-yl)-2-methylimidazo[1,2-a]-pyridine-3-carboxamide] | 1 µM |
| CCc1nc2c(OCC3CCC3)cccn2c1C(=O)N[C@@H](C)CO [Example 58, 8-(cyclobutylmethoxy)-2-ethyl-N-[(2S)-1-hydroxypropan-2-yl]imidazo[1,2-a]pyridine-3-carboxamide formic acid salt] | 3 µM |
| Cc1nc2c(OCc3c(F)cccc3F)cccn2c1C(=O)N[C@@H](CO)CCO [Example 129, 8-[(2,6-difluorobenzyl)oxy]-N-[(2R)-1,4-dihydroxybutan-2-yl)-2-methylimidazo[1,2-a]pyridine-3-carboxamide] | 3 µM |
| Cc1nc2c(OCc3c(F)cccc3F)cccn2c1C(=O)N[C@@H](CO)CC(C)C [Example 39, 8-[(2,6-Difluorobenzyl)oxy]-N-[(2R)-1-hydroxy-4-methylpentan-2-yl]-2-methylimidazo[1,2-a]-pyridine-3-carboxamide] | 0.03 µM |
| Cc1nc2c(OCc3cccc(Cl)c3Cl)cccn2c1C(=O)NC(CO)CO [Example 49, 8-[(2,3-dichlorobenzyl)oxy]-N-(1,3-dihydroxypropan-2-yl)-2-methylimidazo[1,2-a]-pyridine-3-carboxamide] | 2 µM |
| Cc1nc2c(OCc3c(F)cccc3F)cccn2c1C(=O)NC(CCCC(F)(F)F)C(C)(C)O (single isomer, unassigned; ent-8) [Example 156, ent-8-[(2,6-Difluorobenzyl)oxy]-2-methyl-N-(7,7,7-trifluoro-2-hydroxy-2-methylheptan-3-yl)-imidazo[1,2-a]pyridine-3-carboxamide (enantiomer B)] | 0.03 µM |
| Cc1nc2c(OCc3c(Cl)cccc3Cl)cccn2c1C(=O)NC(CO)CO [Example 53, 8-[(2,6-dichlorobenzyl)oxy]-N-(1,3-dihydroxypropan-2-yl)-2-methylimidazo[1,2-a]-pyridine-3-carboxamide] | 10 µM |
| COCC(O)CNC(=O)c1c(C)nc2c(OCC3CCCCC3)cccn12 (stereo not drawn) [Example 79, 8-(cyclohexylmethoxy)-N-(2-hydroxy-3-methoxypropyl)-2-methylimidazo[1,2-a]pyridine-3-carboxamide] | 0.3 µM |
